What was measured:
[1] = molecular target: T1, Endothelin-1 receptor (Homo sapiens, UniProt P25101); assay type: cell membranes, CHO-K1, Membrane; details: cho-k1; also: in other assays of this panel Not Active means under 50% inhibition at 10 µM
T1 sequence (P25101 whole entry): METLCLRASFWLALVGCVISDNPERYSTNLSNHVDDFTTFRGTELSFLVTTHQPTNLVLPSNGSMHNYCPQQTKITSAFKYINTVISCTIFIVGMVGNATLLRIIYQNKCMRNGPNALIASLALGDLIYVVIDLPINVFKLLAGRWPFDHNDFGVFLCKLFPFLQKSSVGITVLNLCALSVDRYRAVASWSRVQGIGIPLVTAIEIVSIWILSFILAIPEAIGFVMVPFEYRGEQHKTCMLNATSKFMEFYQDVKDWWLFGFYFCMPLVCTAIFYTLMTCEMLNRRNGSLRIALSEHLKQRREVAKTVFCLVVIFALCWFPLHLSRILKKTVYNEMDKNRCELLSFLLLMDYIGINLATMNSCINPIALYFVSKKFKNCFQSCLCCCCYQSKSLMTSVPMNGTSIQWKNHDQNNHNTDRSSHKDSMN

[2] = molecular target: T2, Angiotensin-converting enzyme (Oryctolagus cuniculus, UniProt P12822); assay type: tissue-based, Lung;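 also: enzymatic inhibition of angiotensin-converting enzyme measured with FAPGG as the substrate; in other assays of this panel Not Active means under 50% inhibition at 10 µM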
T2 sequence (P12822 whole entry): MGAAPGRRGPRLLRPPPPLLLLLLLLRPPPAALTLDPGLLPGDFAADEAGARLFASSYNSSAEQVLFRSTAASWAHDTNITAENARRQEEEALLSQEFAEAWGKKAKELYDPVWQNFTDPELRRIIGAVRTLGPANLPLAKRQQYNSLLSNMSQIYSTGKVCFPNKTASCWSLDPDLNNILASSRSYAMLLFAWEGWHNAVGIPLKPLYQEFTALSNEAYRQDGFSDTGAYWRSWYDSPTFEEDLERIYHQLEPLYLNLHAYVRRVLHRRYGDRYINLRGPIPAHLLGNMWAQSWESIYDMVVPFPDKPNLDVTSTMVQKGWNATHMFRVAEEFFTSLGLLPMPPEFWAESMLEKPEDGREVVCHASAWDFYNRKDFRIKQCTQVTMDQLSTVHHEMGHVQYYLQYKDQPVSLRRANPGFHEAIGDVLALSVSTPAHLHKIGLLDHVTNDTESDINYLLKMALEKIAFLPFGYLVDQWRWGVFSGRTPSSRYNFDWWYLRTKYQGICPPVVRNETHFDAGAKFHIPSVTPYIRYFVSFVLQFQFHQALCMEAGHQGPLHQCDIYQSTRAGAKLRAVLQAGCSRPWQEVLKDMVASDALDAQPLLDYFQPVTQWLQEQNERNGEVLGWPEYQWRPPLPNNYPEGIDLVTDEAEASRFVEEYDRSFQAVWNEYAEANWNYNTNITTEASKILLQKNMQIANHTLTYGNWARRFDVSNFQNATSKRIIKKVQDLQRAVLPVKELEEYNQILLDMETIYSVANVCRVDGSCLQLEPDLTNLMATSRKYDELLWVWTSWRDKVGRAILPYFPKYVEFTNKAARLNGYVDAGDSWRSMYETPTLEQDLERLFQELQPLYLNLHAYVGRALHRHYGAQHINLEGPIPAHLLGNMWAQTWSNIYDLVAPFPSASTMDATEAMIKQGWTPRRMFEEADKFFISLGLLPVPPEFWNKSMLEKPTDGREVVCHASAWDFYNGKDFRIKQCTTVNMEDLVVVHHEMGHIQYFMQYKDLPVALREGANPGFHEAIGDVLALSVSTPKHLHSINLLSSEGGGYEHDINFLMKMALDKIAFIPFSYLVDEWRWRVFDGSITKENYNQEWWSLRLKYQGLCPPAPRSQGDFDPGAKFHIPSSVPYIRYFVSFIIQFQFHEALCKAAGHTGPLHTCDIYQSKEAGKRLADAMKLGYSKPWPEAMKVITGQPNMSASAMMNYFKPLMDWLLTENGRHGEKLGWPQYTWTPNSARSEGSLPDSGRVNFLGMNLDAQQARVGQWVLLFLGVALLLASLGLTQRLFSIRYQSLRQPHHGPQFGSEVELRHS

[3] = molecular target: Receptor tyrosine-protein kinase erbB-2 (Homo sapiens, UniProt P04626); assay: biochemical; assay type: cell-based, Insect cells;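 also: inhibition of HER2 kinase enzyme activity, measured with Poly(Glu:Tyr) as the phosphorylation substrate; in other assays of this panel Not Active means under 50% inhibition at 10 µM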
[4] = molecular target: T3, 5-hydroxytryptamine receptor 1A (Rattus norvegicus, UniProt P19327); assay type: cell membranes, CHO-K1, Membrane; details: for Ki: read-out: Ki; as to all read-outs here: in other assays of this panel Not Active means under 50% inhibition at 10 µM
T3 sequence (P19327 whole entry): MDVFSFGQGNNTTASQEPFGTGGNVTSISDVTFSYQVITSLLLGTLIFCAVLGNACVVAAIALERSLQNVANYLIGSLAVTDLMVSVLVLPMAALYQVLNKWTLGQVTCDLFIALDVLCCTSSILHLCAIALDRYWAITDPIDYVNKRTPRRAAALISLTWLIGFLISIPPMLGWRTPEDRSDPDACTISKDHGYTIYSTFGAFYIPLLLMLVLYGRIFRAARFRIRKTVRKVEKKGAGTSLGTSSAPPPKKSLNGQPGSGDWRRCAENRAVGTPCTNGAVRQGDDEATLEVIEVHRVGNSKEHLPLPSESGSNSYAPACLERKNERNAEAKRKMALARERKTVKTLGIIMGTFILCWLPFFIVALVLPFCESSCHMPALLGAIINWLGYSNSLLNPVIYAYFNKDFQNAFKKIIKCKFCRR

[5] = molecular target: Adenosine receptor A2a (Homo sapiens, UniProt P29274); assay: DRUGMATRIX: Adenosine A2A radioligand binding (ligand: […]); assay type: cell membranes, Membrane; details: hek293; Not Active = under 50% inhibition at 10 µM
[6] = molecular target: Mu-type opioid receptor (Homo sapiens, UniProt P35372); assay: DRUGMATRIX: Opiate mu (OP3, MOP) radioligand binding (ligand: [3H] Diprenorphine); assay type: cell membranes, CHO-K1, Membrane; details: cho-k1; Not Active = under 50% inhibition at 10 µM
Mu-type opioid receptor, sequence (P35372 whole entry): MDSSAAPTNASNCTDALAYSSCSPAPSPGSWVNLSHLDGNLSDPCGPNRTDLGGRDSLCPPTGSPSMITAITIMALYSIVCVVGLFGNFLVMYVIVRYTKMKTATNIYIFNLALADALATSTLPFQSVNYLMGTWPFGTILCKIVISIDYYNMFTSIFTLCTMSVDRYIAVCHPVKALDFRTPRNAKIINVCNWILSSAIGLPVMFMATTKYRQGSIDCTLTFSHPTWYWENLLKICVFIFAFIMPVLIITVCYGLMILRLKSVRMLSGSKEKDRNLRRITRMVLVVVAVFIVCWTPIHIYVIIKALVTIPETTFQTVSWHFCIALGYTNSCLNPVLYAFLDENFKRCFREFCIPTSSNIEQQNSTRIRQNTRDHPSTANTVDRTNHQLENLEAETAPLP

Receptor tyrosine-protein kinase erbB-2, sequence (P04626 whole entry): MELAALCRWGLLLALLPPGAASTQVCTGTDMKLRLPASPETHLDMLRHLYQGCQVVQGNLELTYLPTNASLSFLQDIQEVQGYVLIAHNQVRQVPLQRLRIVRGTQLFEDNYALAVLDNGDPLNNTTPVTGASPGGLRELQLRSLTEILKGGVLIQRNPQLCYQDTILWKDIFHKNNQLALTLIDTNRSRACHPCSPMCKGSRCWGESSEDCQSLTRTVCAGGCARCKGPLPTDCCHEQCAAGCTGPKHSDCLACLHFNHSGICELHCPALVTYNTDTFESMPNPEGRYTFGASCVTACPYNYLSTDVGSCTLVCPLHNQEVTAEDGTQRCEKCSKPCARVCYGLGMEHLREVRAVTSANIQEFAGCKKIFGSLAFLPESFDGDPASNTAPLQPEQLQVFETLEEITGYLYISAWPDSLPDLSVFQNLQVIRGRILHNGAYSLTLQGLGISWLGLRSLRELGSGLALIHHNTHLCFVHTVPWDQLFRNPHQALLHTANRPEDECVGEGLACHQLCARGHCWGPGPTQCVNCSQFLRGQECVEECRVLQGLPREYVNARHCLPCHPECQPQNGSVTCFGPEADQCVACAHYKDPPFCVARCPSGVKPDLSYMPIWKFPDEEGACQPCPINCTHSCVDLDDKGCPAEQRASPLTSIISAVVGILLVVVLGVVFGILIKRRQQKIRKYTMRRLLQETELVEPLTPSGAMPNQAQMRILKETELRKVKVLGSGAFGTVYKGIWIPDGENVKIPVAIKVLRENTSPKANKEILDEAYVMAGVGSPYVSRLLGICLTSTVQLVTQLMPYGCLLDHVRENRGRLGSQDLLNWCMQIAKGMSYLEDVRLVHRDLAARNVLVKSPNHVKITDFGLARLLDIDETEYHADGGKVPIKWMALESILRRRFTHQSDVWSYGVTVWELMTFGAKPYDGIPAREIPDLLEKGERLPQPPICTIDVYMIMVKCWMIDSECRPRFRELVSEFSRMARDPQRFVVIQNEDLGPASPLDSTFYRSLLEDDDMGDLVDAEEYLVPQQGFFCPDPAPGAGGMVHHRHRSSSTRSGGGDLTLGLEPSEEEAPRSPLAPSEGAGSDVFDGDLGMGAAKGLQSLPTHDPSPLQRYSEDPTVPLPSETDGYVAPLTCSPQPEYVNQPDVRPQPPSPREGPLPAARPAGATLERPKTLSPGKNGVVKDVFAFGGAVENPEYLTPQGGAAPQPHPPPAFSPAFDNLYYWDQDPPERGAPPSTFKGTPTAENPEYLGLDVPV
Adenosine receptor A2a, sequence (P29274 whole entry): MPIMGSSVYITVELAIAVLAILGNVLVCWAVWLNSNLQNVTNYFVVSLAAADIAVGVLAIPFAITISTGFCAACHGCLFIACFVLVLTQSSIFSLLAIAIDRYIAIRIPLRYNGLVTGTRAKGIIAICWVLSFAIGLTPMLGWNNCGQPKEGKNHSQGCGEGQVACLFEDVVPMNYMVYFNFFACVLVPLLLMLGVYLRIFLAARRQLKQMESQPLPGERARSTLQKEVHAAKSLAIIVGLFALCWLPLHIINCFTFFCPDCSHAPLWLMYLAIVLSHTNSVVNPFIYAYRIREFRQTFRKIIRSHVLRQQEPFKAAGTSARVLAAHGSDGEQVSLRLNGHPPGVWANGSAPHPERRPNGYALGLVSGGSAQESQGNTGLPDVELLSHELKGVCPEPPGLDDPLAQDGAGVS

Row | SMILES | IC50 [1] | IC50 [2] | IC50 ([3]; insect cells) | IC50 ([4]; read-out: IC50) [µM] | Ki [4] [µM] | IC50 [5] | IC50 [6] | IC50 ([4]; cho-k1) | IC50 ([3]; read-out: IC50) [µM]
1 | CC(C)(C)NCC(O)c1cc(Cl)c(N)c(Cl)c1 (configuration not stated) [CLENBUTEROL] | Not Active | Not Active | Not Active | 2.65 | 1.52 | Not Active |  |  | 
2 | COc1cc2nc(N3CCN(C(=O)C4COc5ccccc5O4)CC3)nc(N)c2cc1OC (configuration not stated) [DOXAZOSIN] | Not Active | Not Active | Not Active |  |  | Not Active | Not Active | Not Active | 
3 | CN(C)CCCN1c2ccccc2Sc2ccc(Cl)cc21 [CHLORPROMAZINE] | Not Active | Not Active |  | 4.68 | 2.68 | Not Active |  |  | 19.4
4 | CC(C)(Oc1ccc(Cl)cc1)C(=O)O [CLOFIBRIC ACID] | Not Active | Not Active | Not Active |  |  | Not Active | Not Active | Not Active | 
5 | O=c1oc2ccccc2c(O)c1Cc1c(O)c2ccccc2oc1=O [DICUMAROL] | Not Active | Not Active | Not Active |  |  | Not Active | Not Active | Not Active | 
6 | O=C1CC[C@@H](N2C(=O)c3ccccc3C2=O)C(=O)N1 | Not Active | Not Active | Not Active |  |  | Not Active | Not Active | Not Active | 
7 | Cc1ccccc1N1C(=O)c2cc(S(N)(=O)=O)c(Cl)cc2NC1C (configuration not stated) [METOLAZONE] | Not Active | Not Active | Not Active |  |  | Not Active | Not Active | Not Active | 
8 | Nc1nc(N)nc(-c2cc(Cl)ccc2Cl)n1.O=C(O)/C=C\C(=O)O [IRSOGLADINE MALEATE] | Not Active | Not Active | Not Active |  |  | Not Active | Not Active | Not Active | 
9 | C[C@H](CS)C(=O)N1CCC[C@H]1C(=O)O [CAPTOPRIL] | Not Active |  | Not Active |  |  | Not Active | Not Active | Not Active | 
10 | Clc1cccc(Cl)c1NC1=NCCN1 [CLONIDINE] | Not Active | Not Active | Not Active | 5.36 | 3.07 | Not Active | Not Active |  | 
11 | CCCC1O[C@@H]2C[C@H]3[C@@H]4CCC5=CC(=O)C=C[C@]5(C)[C@H]4[C@@H](O)C[C@]3(C)[C@]2(C(=O)CO)O1 (some centres not stated) [BUDESONIDE] | Not Active | Not Active | Not Active |  |  | Not Active | Not Active | Not Active | 
12 | C[C@H]1O[C@@H](O[C@H]2[C@@H](O)C[C@H](O[C@H]3[C@@H](O)C[C@H](O[C@H]4CC[C@@]5(C)[C@H](CC[C@@H]6[C@@H]5C[C@@H](O)[C@]5(C)[C@@H](C7=CC(=O)OC7)CC[C@]65O)C4)O[C@@H]3C)O[C@@H]2C)C[C@H](O)[C@@H]1O [DIGOXIN] | Not Active | Not Active | Not Active |  |  | Not Active | Not Active | Not Active | 
13 | CCCCc1nc(Cl)c(CO)n1Cc1ccc(-c2ccccc2-c2nnn[nH]2)cc1 [LOSARTAN] | Not Active | Not Active | Not Active |  |  | Not Active | Not Active | Not Active | 
14 | CNCCc1ccccn1 [BETAHISTINE] | Not Active | Not Active | Not Active |  |  | Not Active | Not Active | Not Active | 
15 | COc1cc2c3cc1Oc1cc(ccc1O)C[C@@H]1c4c(cc(OC)c(O)c4Oc4ccc(cc4)C[C@@H]3N(C)CC2)CC[N+]1(C)C.[Cl-] | Not Active | Not Active | Not Active |  |  | Not Active | Not Active | Not Active | 
16 | CC(NC(C)(C)C)C(=O)c1cccc(Cl)c1 (configuration not stated) [BUPROPION] | Not Active | Not Active | Not Active |  |  | Not Active | Not Active | Not Active | 
17 | C[C@]12CC[C@@H]3c4ccc(O)cc4CC[C@H]3[C@@H]1CCC2=O [ESTRONE] | Not Active | Not Active | Not Active |  |  | Not Active | Not Active | Not Active | 
18 | CC(=O)O[C@@]12CO[C@@H]1C[C@H](O)[C@@]1(C)C(=O)[C@H](O)C3=C(C)[C@@H](OC(=O)[C@H](O)[C@@H](NC(=O)OC(C)(C)C)c4ccccc4)C[C@@](O)([C@@H](OC(=O)c4ccccc4)[C@H]21)C3(C)C.O.O.O [DOCETAXEL] | Not Active | Not Active | Not Active |  |  | Not Active | Not Active | Not Active | 
19 | C[C@](N)(Cc1ccc(O)c(O)c1)C(=O)O [METHYLDOPA] | Not Active | Not Active | Not Active |  |  | Not Active | Not Active | Not Active | 
20 | CN(C)CCCN1c2ccccc2Sc2ccccc21 [PROMAZINE] | Not Active | Not Active | Not Active | 5.17 | 2.96 | Not Active | Not Active |  | 
21 | CN(C)c1nc(N(C)C)nc(N(C)C)n1 [ALTRETAMINE] | Not Active | Not Active | Not Active |  |  | Not Active | Not Active | Not Active | 
22 | NC1=NC(=O)C(c2ccccc2)O1 (configuration not stated) [PEMOLINE] | Not Active | Not Active | Not Active |  |  | Not Active | Not Active | Not Active | 
23 | COCCc1ccc(OCC(O)CNC(C)C)cc1 (configuration not stated) [METOPROLOL] | Not Active | Not Active | Not Active |  |  | Not Active | Not Active | Not Active | 
24 | O=c1[nH]c(=O)n([C@H]2C[C@H](O)[C@@H](CO)O2)cc1I [IDOXURIDINE] | Not Active | Not Active | Not Active |  |  | Not Active | Not Active | Not Active | 
25 | CNNCc1ccc(C(=O)NC(C)C)cc1 [PROCARBAZINE] | Not Active | Not Active | Not Active |  |  | Not Active | Not Active | Not Active | 
26 | C[C@H]1c2cccc(O)c2C(=O)C2=C(O)[C@]3(O)C(=O)C(C(N)=O)=C(O)[C@@H](N(C)C)[C@@H]3[C@@H](O)[C@@H]21.O [DOXYCYCLINE] | Not Active | Not Active | Not Active |  |  | Not Active | Not Active | Not Active | 

— ChEMBL document CHEMBL1909046, “DrugMatrix in vitro pharmacology data”
